Measured values from patent publication US6046238A, “Method for treating or preventing the spread of acne vulgaris” (TriStrata, Inc., priority 1999, dated 2000).
“Also recorded” adds a separate entry of the source.

Assays:
[1] = topical treatment of folliculitis and perifolliculitis; format: in vivo, human; settings: 0.9%, twice daily; nine patients
Procedure: Nine patients having various degrees of folliculitis and perifolliculitis participated in this study. A test composition containing 0.9% phenyl 2-acetoxyethanoic acid or diphenyl 2-acetoxyethanoic acid was prepared by dissolving 0.9 g compound in 79.1 ml 2-propanol, 15 ml butane-1,3-diol and 5 ml nonoxynol-6. The composition was packaged in one-ounce bottles. The patients were instructed to apply the test composition twice daily on the infected skin lesions and involved areas. Topical applications were continued up to 8 weeks.

[2] = reversal of corticosteroid unresponsiveness in psoriasis; format: in vivo, human; settings: added once daily to corticosteroid twice daily; seven patients
Procedure: To determine the therapeutic responsive effect of an aryl 2-acetoxyethanoicacid against psoriasis seven patient participated in this study. A test composition was prepared by dissolving 1 g phenyl 2-acetoxyethanoic acid or diphenyl 2-acetoxyethanoic acid in 2 ml ethanol. The solution thus obtained was mixed with 60 g petrolatum and 37 g mineral oil. The anhydrous ointment thus formulated was packaged in one-ounce jars.
When the drug unresponsiveness to a corticosteroid occurred, the participating patients were instructed to apply in addition the test composition once daily to the lesions on the left side of the body only. Topical applications of the corticosteroid were continued twice daily to both sides of the body. […] While psoriatic lesions on the right side of the body remained unresponsive to the topical corticosteroid, the lesions on the left side started to clear after 3 to 4 weeks of additional topical application with the composition containing an aryl 2-acetoxyethanoic acid.
At this time the patients were instructed to shift the additional topical application to the lesions on the right side instead of the left side of the body. The psoriatic lesions on the right side of the body began to clear after 3 to 4 weeks of additional topical application with the composition containing aryl 2-acetoxyethanoic acid.

[3] = treatment of oral infections; format: in vivo, human; settings: 2% composition diluted to 0.1%; oral rinse twice daily
Procedure: Compositions for treatment of oral infections may contain an aryl 2-acetoxyethanoic acid as the only active ingredient. In this case a phenyl 2-acetoxyethanoic acid or diphenyl 2-acetoxyethanoic acid 2% composition was formulated by dissolving the active ingredient 2 g in ethanol 78 ml and propylene glycol 20 ml. Before use, this composition was diluted to 0.1% with water by mixing one part of the composition with 19 parts of water. The treatment involves oral rinse, wash and gargle by keeping the diluted composition inside the oral cavity for a few minutes, and then spit out. Such procedure may be repeated twice daily for several days until the infection is eradicated usually within 5-7 days.

[4] = prophylactic effect in preventing the development of axillary foul odor; format: in vivo, human; settings: Example 5; 0.5% solution, topical; one person; up to 24 hours
Procedure: A typical test for prophylactic effect in preventing the development of axillary foul odor was carried out as follows. A test composition was prepared by dissolving 0.5 g of phenyl 2-acetoxyethanoic acid or diphenyl 2-acetoxyethanoic acid in 70 ml of ethanol and 30 ml of propylene glycol. The control vehicle was prepared by mixing 70 ml of ethanol and 30 ml of propylene glycol. A human subject was instructed to take a shower in the morning using ordinary soap to clean the body surfaces. After the skin was dried, the test composition was topically applied to the left underarm area only. The vehicle control was topically applied to the right underarm area. Both underarm areas were monitored by the subject and at least one other person approximately every 8 hours to determine whether the test composition had any prophylactic effect in preventing the development of underarm foul odor in the left axilla as compared to the vehicle alone on the right control armpit.
Presence or substantial absence of foul odor, detected by smell, was adopted as the criteria for ineffectiveness or effectiveness of the test composition.
A total of seven subjects (four females; three males) participated in several studies. Most of these subjects could not use existing commercial products of antiperspirants or deodorants because of severe irritation after topical application. […]

[5] = axillary antiodor effectiveness (treatment); format: in vivo, human; settings: 0.5%
Excerpt: In another study the subjects were instructed not to take a shower in the morning. After the foul odor developed in both axillae, the subjects were instructed to apply the test composition containing 0.5% phenyl 2-acetoxyethanoic acid or diphenyl 2-acetoxyethanoic acid on the left underarm area and the control vehicle on the right underarm area. Topical applications were made once daily for several days.
Usually the left underarm ceased emanating any detectable foul odor after 1 day of topical use. The subjects were instructed at this time to apply the test composition containing 0.5% phenyl 2-acetoxyethanoic acid or diphenyl 2-acetoxyethanoic acid on the right underarm area also. Topical applications were made once daily for several days. The right axilla ceased to emanate any detectable foul odor after 1 to 2 days of topical use.

[6] = topical treatment of nail infections; format: in vivo, human; settings: non-synergistic composition, twice daily
Excerpt: The participating subjects in the present study were instructed to apply twice daily the composition containing phenyl 2-acetoxyethanoic acid or diphenyl 2-acetoxyethanoic acid with or without clotrimazole as an additional antimicrobial agent.
In order to determine the antimicrobial effect of an aryl 2-acetoxyethanoicacid, a standard test method of Minimum Inhibitory Concentration (MIC) against the growth of 10 bacteria was used. To determine a prophylactic effect against the development of, as well as a topical effect in the treatment of, body foul door, eleven human subjects participated in this study. […] Scientific and test results are overviewed as follows.

[7] = caused by microbial infections including P. acnes; salicylic acid alone; cited from earlier work

Structure (SMILES) | deeper lesions of papules [1] | superficial folliculitis and perifolliculitis lesions [1] | onset of improvement of psoriatic lesions, left side [2] | time within which oral infection is usually eradicated [3] [days] | prevention of axillary foul odor (left underarm) [4] | overall axillary antiodor effectiveness ([5]; topical) | left axilla on continued use ([5]; continued, once daily for several days) | time after which left underarm usually ceased emanating any detectable foul odor ([5]; no-shower study, left side) [days] | intensity of foul odor, left underarm ([5]; no-shower study, once daily) | time after which left underarm ceased emanating any detectable foul odor ([5]; Example 6, once daily, one person, left side) [days] | time after which right axilla ceased to emanate any detectable foul odor ([5]; Example 6, right side, formerly vehicle) [days] | disappearance of nail infections [6] | effect against acne lesions associated with whiteheads [7]
CC(=O)OC(C(=O)O)(c1ccccc1)c1ccccc1 [diphenyl 2-acetoxyethanoic acid] | eradicated or substantially improved after 4 to 8 weeks of topical applications | eradicated or substantially improved after a few days of topical applications | began to improve after one week | 5 to 7 | did not produce any detectable odor, even after 24 hours; also recorded: substantially effective in preventing the development of axillary foul odor | topically effective in eradicating the axillary foul odor | continued to maintain the condition free of any offensive foul odor | 1 | diminished in intensity of foul odor after one to two days of topical application | 1 | 1 | usually disappeared within one to several months | 
O=C(O)c1ccccc1O [salicylic acid] |  |  |  |  |  |  |  |  |  |  |  |  | not therapeutically effective against acne lesions associated with whiteheads
